Assay results taken from patent publication US20110097274A1, “Carbon-11 and fluorine-18 labeled radioligands for positron emission tomography (PET) imaging for the brain serotonin transporters” (priority 2002, published 2011).
Where “and” joins values, the source holds several entries; their conditions need not be identical. Equal values may be shown once. Read-outs that look alike come from different tables or passages of the source.

Assays:
[1] = Plasma free fraction (f1) and filter retention by ultrafiltration; assay type: in vitro ADME, baboon; details: mean ± SD of four experiments
Description: Plasma and ultrafiltrate activities were counted, and f1 was calculated as the ratio of ultrafiltrate activity to total plasma activity. Triplicate aliquots of the radioligand in pH 7.4 Tris buffer were also processed to determine the filter retention of free tracer.

[2] = Baboon PET imaging: brain uptake, kinetic analysis and SERT parameters; assay type: in vivo; details: male, baboon, intravenous, baboons
Method in brief: (§1)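 Two isoflurane-anaesthetised adult male baboons, each radioligand tested twice (test-retest); i.v. bolus, 91 min 3D emission scan with arterial sampling, MRI-defined regions. Brain uptake as % ID g^−1, with peak time and washout; VT from one-tissue compartment model (K1/k2) using arterial plasma input.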

[3] = tested on: SERT; assay: as above; assay type: in vivo; details: for Kp: male, baboon, brain, intravenous
Method in brief: as §1

[4] = BP = VT ROI − VT CER, baboons, mean ± SD of four experiments
[5] = Mean ± SD of four experiments in two baboons
[6] = baboon A, experiments of FIGS. 5-9 (FIG. 10)
[7] = baboons, mean ± SD of four experiments
[8] = last scan 90 minutes, baboons, mean ± SD of four experiments
[9] = one-tissue compartment model, baboons, mean ± SD of four experiments

Filter retention ([1]; activity remaining on filter, radioligand dissolved in saline): 77.9 ± 6.6%
fraction unbound at 20 min ([1]; male, monkey, baboon plasma, ultrafiltration): 0.018 ± 0.005
Kp ([2]; brain regions (average of all regions), read-out: VT, average of all regions and all animals): 47.8 ± 16
Kp ([2]; cerebellum, one-tissue compartment model, mean ± SD of four experiments, read-out: VT Cerebellum (VT CER, nonspecific distribution volume)): 29.3 ± 2.9
Time at which measured thalamus to cerebellum ratio equals the true equilibrium ratio (estimate of peak specific binding) [3, 6]: 80 min
K1, average of all regions and all animals ([3]; baboons): 0.85 ± 0.23 mL/g/min
k2, average of all regions and all animals ([3]; baboons): 0.020 ± 0.008 min⁻¹
Mean regional peak uptake time ([3]; baboons, mean of all regions): 50 ± 20 min
Mean regional wash-out (% decrease between peak time and last scan) ([3]; baboons, mean of all regions): 12±11%
Regional uptake peak time Cerebellum [3, 7]: 24 ± 10 min
Regional uptake peak time Cingulate Cortex [3, 7]: 36 ± 8 min
Regional uptake peak time Hippocampus [3, 7]: 64 ± 15 min
Regional uptake peak time Midbrain [3, 7]: 71 ± 13 min
Regional uptake peak time Occipital Cortex [3, 7]: 36 ± 8 min
Regional uptake peak time Striatum [3, 7]: 51 ± 19 min
Regional uptake peak time Temporal Cortex [3, 7]: 49 ± 10 min
Regional uptake peak time Thalamus [3, 7]: 69 ± 13 min
Total brain uptake at 45 min ([3]; baboons, region encompassing the entire brain): 0.018±0.002 % ID g^−1
Regional activity wash-out: % decrease from peak to last scan, Cerebellum [3, 8]: 29 ± 14%
Regional activity wash-out: % decrease from peak to last scan, Cingulate Cortex [3, 8]: 19 ± 9%
Regional activity wash-out: % decrease from peak to last scan, Hippocampus [3, 8]: 4 ± 5%
Regional activity wash-out: % decrease from peak to last scan, Midbrain [3, 8]: 2 ± 3%
Regional activity wash-out: % decrease from peak to last scan, Occipital Cortex [3, 8]: 18 ± 7%
Regional activity wash-out: % decrease from peak to last scan, Striatum [3, 8]: 8 ± 8%
Regional activity wash-out: % decrease from peak to last scan, Temporal Cortex [3, 8]: 11 ± 5%
Regional activity wash-out: % decrease from peak to last scan, Thalamus [3, 8]: 3 ± 4%
Kp ([3]; cingulate cortex, one-tissue compartment model, baboons, mean ± SD of four experiments, read-out: VT Cingulate Cortex): 37.1 ± 3.8
Kp ([3]; hippocampus, one-tissue compartment model, baboons, mean ± SD of four experiments, read-out: VT Hippocampus): 44.7 ± 3.4
Kp ([3]; midbrain, one-tissue compartment model, baboons, mean ± SD of four experiments, read-out: VT Midbrain): 69.2 ± 7
Kp ([3]; occipital cortex, one-tissue compartment model, baboons, mean ± SD of four experiments, read-out: VT Occipital Cortex): 35 ± 4.8
Kp ([3]; striatum, one-tissue compartment model, baboons, mean ± SD of four experiments, read-out: VT Striatum): 52.1 ± 3
Kp ([3]; temporal cortex, one-tissue compartment model, baboons, mean ± SD of four experiments, read-out: VT Temporal Cortex): 40.5 ± 6
Kp ([3]; thalamus, one-tissue compartment model, baboons, mean ± SD of four experiments, read-out: VT Thalamus): 74.4 ± 3.1
K1 Cerebellum [3, 9]: 0.99 ± 0.29 mL/g/min
K1 Cingulate Cortex [3, 9]: 0.91 ± 0.24 mL/g/min
K1 Hippocampus [3, 9]: 0.67 ± 0.16 mL/g/min
K1 Midbrain [3, 9]: 0.86 ± 0.27 mL/g/min
K1 Occipital Cortex [3, 9]: 0.83 ± 0.17 mL/g/min
K1 Striatum [3, 9]: 0.90 ± 0.26 mL/g/min
K1 Temporal Cortex [3, 9]: 0.78 ± 0.18 mL/g/min
K1 Thalamus [3, 9]: 0.89 ± 0.26 mL/g/min
K2 Cerebellum [3, 9]: 0.034 ± 0.009 min⁻¹
K2 Cingulate Cortex [3, 9]: 0.025 ± 0.006 min⁻¹
K2 Hippocampus [3, 9]: 0.015 ± 0.003 min⁻¹
K2 Midbrain [3, 9]: 0.012 ± 0.003 min⁻¹
K2 Occipital Cortex [3, 9]: 0.024 ± 0.005 min⁻¹
K2 Striatum [3, 9]: 0.017 ± 0.005 min⁻¹
K2 Temporal Cortex [3, 9]: 0.019 ± 0.004 min⁻¹
K2 Thalamus [3, 9]: 0.012 ± 0.004 min⁻¹
Compound: CN(C)Cc1ccccc1Sc1ccc(Br)cc1N [[^11C]DAPA]
Binding potential Cingulate Cortex [3, 4]: 7.9 ± 1.0 mL/g
Binding potential Hippocampus [3, 4]: 15.5 ± 0.7 mL/g
Binding potential Midbrain [3, 4]: 40.0 ± 4.3 mL/g
Binding potential Occipital Cortex [3, 4]: 5.7 ± 1.9 mL/g
Binding potential Striatum [3, 4]: 22.9 ± 0.9 mL/g
Binding potential Temporal Cortex [3, 4]: 11.2 ± 3.3 mL/g
Binding potential Thalamus [3, 4]: 45.1 ± 1.8 mL/g
Equilibrium specific to non-specific partition coefficient (V3″) Cingulate Cortex ([3]; Baboon A, single experiment): 0.29 and 0.26
Equilibrium specific to non-specific partition coefficient (V3″) Hippocampus ([3]; Baboon A, single experiment): 0.54 and 0.48
Equilibrium specific to non-specific partition coefficient (V3″) Midbrain ([3]; Baboon A, single experiment): 1.41 and 1.37
Equilibrium specific to non-specific partition coefficient (V3″) Occipital Cortex ([3]; Baboon A, single experiment): 0.22 and 0.25
Equilibrium specific to non-specific partition coefficient (V3″) Striatum ([3]; Baboon A, single experiment): 0.73 and 0.72
Equilibrium specific to non-specific partition coefficient (V3″) Temporal Cortex ([3]; Baboon A, single experiment): 0.48 and 0.42
Equilibrium specific to non-specific partition coefficient (V3″) Thalamus ([3]; Baboon A, single experiment): 1.49 and 1.40
Equilibrium specific to non-specific partition coefficient (V3″) Cingulate Cortex ([3]; Baboon B, single experiment): 0.25 and 0.27
Equilibrium specific to non-specific partition coefficient (V3″) Hippocampus ([3]; Baboon B, single experiment): 0.56 and 0.54
Equilibrium specific to non-specific partition coefficient (V3″) Midbrain ([3]; Baboon B, single experiment): 1.42 and 1.27
Equilibrium specific to non-specific partition coefficient (V3″) Occipital Cortex ([3]; Baboon B, single experiment): 0.15
Equilibrium specific to non-specific partition coefficient (V3″) Striatum ([3]; Baboon B, single experiment): 0.91 and 0.79
Equilibrium specific to non-specific partition coefficient (V3″) Temporal Cortex ([3]; Baboon B, single experiment): 0.30 and 0.32
Equilibrium specific to non-specific partition coefficient (V3″) Thalamus ([3]; Baboon B, single experiment): 1.81 and 1.52
Equilibrium specific to non-specific partition coefficient (V3″) Cingulate Cortex [3, 5]: 0.27 ± 0.02
Equilibrium specific to non-specific partition coefficient (V3″) Hippocampus [3, 5]: 0.53 ± 0.04
Equilibrium specific to non-specific partition coefficient (V3″) Midbrain [3, 5]: 1.37 ± 0.07
Equilibrium specific to non-specific partition coefficient (V3″) Occipital Cortex [3, 5]: 0.19 ± 0.05
Equilibrium specific to non-specific partition coefficient (V3″) Striatum [3, 5]: 0.79 ± 0.09
Equilibrium specific to non-specific partition coefficient (V3″) Temporal Cortex [3, 5]: 0.38 ± 0.09
Equilibrium specific to non-specific partition coefficient (V3″) Thalamus [3, 5]: 1.55 ± 0.18
Thalamus to cerebellum ratio equal to true equilibrium ratio (V3″+1) [3, 6]: 2.49
V3″ expressed in percentage of [^11C]McN 5652 V3″ ([3]; baboons, combining all regions): 151±18%
Cingulate Cortex to cerebellum activity ratio at 90 minutes [3, 7]: 1.27 ± 0.05
Hippocampus to cerebellum activity ratio at 90 minutes [3, 7]: 1.42 ± 0.13
Midbrain to cerebellum activity ratio at 90 minutes [3, 7]: 2.05 ± 0.31
Occipital Cortex to cerebellum activity ratio at 90 minutes [3, 7]: 1.19 ± 0.08
Striatum to cerebellum activity ratio at 90 minutes [3, 7]: 1.69 ± 0.12
Temporal Cortex to cerebellum activity ratio at 90 minutes [3, 7]: 1.35 ± 0.16
Thalamus to cerebellum activity ratio at 90 minutes [3, 7]: 2.15 ± 0.30
